Target: T1, Caldibacillus cellulovorans CompA.2 (CA2) DNA polymerase, SEQ ID NO:16 ([Caldibacillus] cellulovorans, UniProt Q6X9S0)
T1 sequence (Q6X9S0 with tags, fused parts or gaps): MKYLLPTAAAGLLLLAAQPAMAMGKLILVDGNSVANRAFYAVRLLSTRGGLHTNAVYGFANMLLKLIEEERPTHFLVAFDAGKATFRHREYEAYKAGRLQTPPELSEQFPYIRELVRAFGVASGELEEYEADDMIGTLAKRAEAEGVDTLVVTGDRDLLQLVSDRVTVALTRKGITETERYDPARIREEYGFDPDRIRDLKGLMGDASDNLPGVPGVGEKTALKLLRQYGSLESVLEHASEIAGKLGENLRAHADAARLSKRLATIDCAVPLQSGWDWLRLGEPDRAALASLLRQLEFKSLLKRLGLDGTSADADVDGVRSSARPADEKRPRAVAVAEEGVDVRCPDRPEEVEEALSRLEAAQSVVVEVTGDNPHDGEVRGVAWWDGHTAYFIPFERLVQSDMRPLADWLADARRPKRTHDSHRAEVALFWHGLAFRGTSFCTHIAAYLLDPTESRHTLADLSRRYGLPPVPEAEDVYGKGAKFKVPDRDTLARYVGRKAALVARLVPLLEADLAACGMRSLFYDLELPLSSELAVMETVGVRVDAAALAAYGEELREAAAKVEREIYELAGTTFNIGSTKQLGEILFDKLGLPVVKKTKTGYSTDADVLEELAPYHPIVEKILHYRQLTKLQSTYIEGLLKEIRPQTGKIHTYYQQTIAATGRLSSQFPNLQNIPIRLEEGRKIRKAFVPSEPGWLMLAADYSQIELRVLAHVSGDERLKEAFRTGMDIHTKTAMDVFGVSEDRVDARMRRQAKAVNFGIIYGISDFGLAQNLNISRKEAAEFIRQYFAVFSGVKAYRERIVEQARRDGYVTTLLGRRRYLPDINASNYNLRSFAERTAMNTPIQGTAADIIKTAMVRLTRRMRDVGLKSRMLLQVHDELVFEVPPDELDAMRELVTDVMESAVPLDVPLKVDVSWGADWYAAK
Assay: Steady-state kinetics, DNA- and RNA-dependent polymerase activity
Type: biochemical
Protocol: Purification of CA2, B.EA1, Rt41A, Dth, Tok13B, Tok7B, and Rt69B DNA polymerase. E. coli cells (BL21SI, Invitrogen Corporation, Carlsbad, Calif.) bearing the plasmid pET26B with the gene for CA2, B.EA1, Rt41A, or Dth DNA polymerase were grown in 2.8-1 Fembach flasks in LB broth containing no salt and 50 μg/ml kanamycin at 37° C. After the culture reached an A590 of 1.2, expression of DNA polymerase was induced with 0.3 M NaCl for 3 hr. Cells were harvested by centrifugation and stored at −70° C. E. coli cells (BL21AI) bearing the plasmid pET14B with the gene for Tok13B, Tok7B, or RT69B DNA polymerase were grown in 2.8-1 Fembach flasks in LB broth containing 50 μg/ml ampicillin at 37° C. After the culture reached an A590 of 1.0, expression of DNA polymerase was induced by the addition of 0.2% arabinose for 3 hr. Cells were harvested by centrifugation and stored at −70° C.
Steady-state kinetic measurements.
The catalytic rate constant kcat and the Michaelis constant KM were determined for both the DNA-dependent and RNA-dependent polymerase activities for the polypeptides of the invention and these parameters were compared to those of Tne DNA polymerase enzyme and […]™ II reverse transcriptase. […]

Cc1cn([C@H]2C[C@H](O)[C@@H](COP(=O)(O)OP(=O)(O)OP(=O)(O)O)O2)c(=O)[nH]c1=O [dTTP]
Kcat RNA (dTTP) (Table 34, RNA template, 2 mM MgCl2, 45 °C per footnote): 5 s⁻¹
kCAT Ratio (RNA/DNA) (Table 40, dTTP, 55 °C): 0.59
Km (read-out: Km RNA (dTTP), Table 34, RNA template, 2 mM MgCl2, 45 °C per footnote): 17 µM
